Patent publication US20100184026A1, “Companion Diagnostic Assays For Endothelin Receptor Antagonists” (ABBOTT LABORATORIES, priority 2009, published 2010)

Legend:
osteoblastic metastases = settings: Yin et al. 2003; cited from earlier work
[1] = system: metastatic hormone-refractory prostate cancer; settings: patients with metastatic hormone-refractory prostate cancer; Nelson et al. 2003; cited from earlier work
[2] = system: mouse MC3T3 osteoblast cell line; experiment: ELISA assays of secreted PAI-1, OPG and IL-6 in osteoblast supernatants; assay type: cell-based
Source text: (§1) Mouse MC3T3 pre-osteoblastic cells (subclone 4) were purchased from ATCC (Manassis, Va.) and propagated in αMEM media without ascorbic acid (Invitrogen, Carlsbad, Calif.) supplemented with 10% FBS (Invitrogen). Human Mesenchymal Stem Cells (MSCs) were purchased from Cambrex (Walkersville, Md.) and propagated according in MSCGM™ media (Cambrex). To initiate differentiation of the MSC into human osteoblasts, the growth media was replaced by osteogenic differentiation medium (OGM, Cambrex).
Mouse MC3T3 osteoblast cells were propagated as set out above, and at times indicated were harvested and spun at 250×g for 10 minutes at room temperature. The clarified supernatants were aliquoted and frozen until analyzed. 200 microliters of each sample was tested in quadruplicate by commercially available ELISA assay kits for PAI-1 (Molecular Innovations, Southfield, Mich.), OPG (Biomedica, San Diego, Calif.) and IL-6 (Ray Biotech, Norcross, Ga.). The ELISA tests were performed according to the manufacturer's instructions. Data from these tests are shown in FIG. 1 (PAI-1), FIG. 2 (OPG) and FIG. 3 (IL-6).

[3] = system: Mouse preosteoblastic MC3T3 cells; experiment: Microarray analysis of gene expression in ET-treated mouse osteoblasts; assay type: cell-based; settings: for # Genes Blocked by ABT-627, percent of genes induced by ET: drug added 1 hour prior to ET; for Induced by ET (number of genes): genes regulated ≧1.5-fold, p ≦0.01
Source text: as §1
(§2) Mouse preosteoblastic MC3T3 cells as well as primary human osteoblasts were treated with ET, from Sigma (St. Louis, Mo.), for 2, 4, and 6 hours in the absence or presence of the ETa receptor antagonist ABT-627, from Abbott Laboratories (Abbott Park, Ill.). The drug was added 1 hour prior to the addition of ET.
(§3) Total RNA was extracted from the treated cell lines and purified on RNeasy columns (Qiagen, Valencia, Calif.). Labeled cRNA was prepared according to the microarray manufacturer Affymetrix's protocol and hybridized to either mouse 430A 2.0 or human U133A 2.0 arrays (Affymetrix, Santa Clara, Calif.). Gene expression fold changes for each treatment were calculated by combining three biological replicates for each treatment using the Rosetta Resolver's Affymetrix error model software and building a ratio from the resulting values. All genes regulated ≧1.5-fold with a p-value of ≦0.01 were retained for further analysis. Conventional two-dimensional clustering was then performed by using the agglomerative hierarchical clustering algorithm. The Euclidean distance was used as the similarity metric.

[4] = system: primary human osteoblasts; experiment: Microarray analysis of gene expression in ET-treated primary human osteoblasts; assay type: cell-based; settings: ET-1 treatment
Source text: as §1, §2
as §3, with “All genes regulated ≧1.5-fold with a p-value of ≦0.01 were retained for further analysis. Conventional two-dimensional clustering was then performed by using the agglomerative hierarchical clustering algorithm. The Euclidean distance was used as the similarity metric.” left out

[5] = endothelin in the presence of ABT-627

## CCCCN(CCCC)C(=O)CN1C[C@H](c2ccc3c(c2)OCO3)[C@@H](C(=O)O)[C@@H]1c1ccc(OC)cc1 [ABT-627, (2R,3R,4S)-(+)-2-(4-Methoxyphenyl)-4-(1,3-benzodioxol-5-yl)-1-(N,N-di(n-butyl)aminocarbonylmethyl)-pyrrolidine-3-carboxylic acid]
Osteoblastic metastases
  Metastatic growth: suppressed
[1]
  Time to disease progression: extended
[2]; [5]
  Endothelin-induced expression of IL-6 (ELISA): substantial suppression
  Endothelin-induced expression of OPG (ELISA): substantial suppression
  Endothelin-induced expression of PAI-1 (ELISA): substantial suppression
[3]; 2 hr ET
  # Genes Blocked by ABT-627, percent of genes induced by ET: (96%)
[3]; 4 hr ET
  # Genes Blocked by ABT-627, percent of genes induced by ET: (83%)
[3]; 6 hr ET
  # Genes Blocked by ABT-627, percent of genes induced by ET: (97%)
[3]; ET in presence of ABT-627
  Induction by ET of suppression-of-apoptosis genes (Nur77, Flt1, NFATc1): the induction was blocked
[3]; all three timepoints (2, 4, 6 hours), pre-treatment before ET
  Effect of pre-treatment on ET gene induction events: abrogated almost all of these gene induction events
[3]; antagonist alone, no ET
  Gene expression changes caused by antagonist alone: very few gene expression changes
[3]; pre-treatment with ABT-627
  Induction by ET-1 of osteoblastic maturation genes (OPG, COX-2, Dmp1, Tgfbi, CTGF, Klf10): blocked

## CC[C@H](C)[C@H](NC(=O)[C@H](CC(=O)O)NC(=O)[C@H](CC(C)C)NC(=O)[C@H](Cc1c[nH]cn1)NC(=O)[C@@H]1CSSC[C@H](N)C(=O)N[C@@H](CO)C(=O)N[C@H]2CSSC[C@H](NC(=O)[C@H](CCC(=O)O)NC(=O)[C@H](CCCCN)NC(=O)[C@H](CC(=O)O)NC(=O)[C@H](CCSC)NC(=O)[C@H](CC(C)C)NC(=O)[C@H](CO)NC(=O)[C@H](CO)NC2=O)C(=O)N[C@@H](C(C)C)C(=O)N[C@@H](Cc2ccc(O)cc2)C(=O)N[C@@H](Cc2ccccc2)C(=O)N1)C(=O)N[C@H](C(=O)N[C@@H](Cc1c[nH]c2ccccc12)C(=O)O)[C@@H](C)CC [ET]
[4]
  Expression of genes coding for secreted proteins (PAI-1, uPA, TGFbeta2, IL-6, IL-8): strongly upregulated
[2]; treatment with endothelin
  Expression of IL-6 (ELISA): strongly induced
  Expression of OPG (ELISA): strongly induced
  Expression of PAI-1 (ELISA): strongly induced
[3]; 2 hr ET treatment
  # Genes Down-regulated by ET: 423
  Induced by ET (number of genes): 608
[3]; 4 hr ET treatment
  # Genes Down-regulated by ET: 295
  Induced by ET (number of genes): 472
[3]; 6 hr ET treatment
  # Genes Down-regulated by ET: 95
  Induced by ET (number of genes): 194
[3]; ET treatment
  Expression of suppression-of-apoptosis genes (Nur77, Flt1, NFATc1): induced
[3]; mouse osteoblasts, ET-1 treatment
  Expression of genes coding for secreted proteins (PAI-1, uPA, TGFbeta2, IL-6, IL-8): strongly upregulated
